pIC50: −log10 of the molar value. In brackets after ≈: the same amount, converted by molar mass. A value given as a limit tells only on which side of the number the result lay.

The subject of assay [1] is A. baumannii 1258916. Briefly: microbe, parasite or virus in culture. The class given is cell-based, Acinetobacter baumannii. To be noted: Acinetobacter baumannii, 1258916, read-out: MIC, A. baumannii 1258916.
Assay [2] relates to N. gonorrhoeae WHO M. Briefly: Liquid broth MIC in Fastidious broth. To be noted: Neisseria gonorrhoeae, read-out: Minimum Inhibitory Concentration (MIC), N. gonorrhoeae WHO M.
Assay [3] has as its system A. baumannii ATCC 17978. The assay is described as follows: microbe, parasite or virus in culture. The assay is classed as cell-based. To be noted: Acinetobacter baumannii, ATCC17978, read-out: MIC, A. baumannii ATCC 17978.
The subject of assay [4] is A. baumannii CDC-0083. Briefly: microbe, parasite or virus in culture. The assay is classed as cell-based. To be noted: Acinetobacter baumannii, CDC0083, read-out: MIC, A. baumannii CDC-0083.
The test system of assay [5] is P. aeruginosa CDC-0090. The assay is described as follows: microbe, parasite or virus in culture. The assay is classed as cell-based. To be noted: Pseudomonas aeruginosa, CDC0090, read-out: Minimum inhibitory concentration, P. aeruginosa CDC-0090.
Assay [6] relates to P. aeruginosa CDC-0110. Briefly: microbe, parasite or virus in culture. The class given is cell-based. To be noted: Pseudomonas aeruginosa, CDC0110, read-out: Minimum inhibitory concentration, P. aeruginosa CDC-0110.
The subject of assay [7] is P. aeruginosa CDC-0095. The assay is described as follows: microbe, parasite or virus in culture. The assay is classed as cell-based. To be noted: Pseudomonas aeruginosa, CDC0095, read-out: Minimum inhibitory concentration, P. aeruginosa CDC-0095.
Assay [8] deals with N. gonorrhoeae WHO K. The assay is described as follows: Liquid broth MIC in Fastidious broth. To be noted: Neisseria gonorrhoeae, read-out: Minimum Inhibitory Concentration (MIC), N. gonorrhoeae WHO K.
The target of assay [9] is T1, PBP3 from Acinetobacter baumannii (ATCC 19606) (Acinetobacter baumannii, UniProt A0ABX6CK25).
T1 sequence (A0ABX6CK25 64-610): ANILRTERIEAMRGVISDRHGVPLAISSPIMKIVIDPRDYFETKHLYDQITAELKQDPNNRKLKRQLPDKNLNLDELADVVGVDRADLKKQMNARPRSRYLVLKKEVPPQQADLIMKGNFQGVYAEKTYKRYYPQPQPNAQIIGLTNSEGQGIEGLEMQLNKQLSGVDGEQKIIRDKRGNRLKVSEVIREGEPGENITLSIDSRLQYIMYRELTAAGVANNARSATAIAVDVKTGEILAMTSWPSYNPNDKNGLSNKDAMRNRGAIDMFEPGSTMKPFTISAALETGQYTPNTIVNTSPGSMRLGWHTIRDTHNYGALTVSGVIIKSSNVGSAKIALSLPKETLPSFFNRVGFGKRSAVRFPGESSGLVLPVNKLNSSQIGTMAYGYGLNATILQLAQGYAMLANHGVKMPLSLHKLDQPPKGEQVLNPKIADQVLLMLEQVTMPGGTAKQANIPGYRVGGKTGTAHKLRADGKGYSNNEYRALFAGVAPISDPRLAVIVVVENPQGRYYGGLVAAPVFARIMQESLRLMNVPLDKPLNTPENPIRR
The assay is described as follows: Bocillin-FL fluorescence polarization competition binding, A. baumannii PBP3. To be noted: fluorescence polarization competition binding assay using Bocillin-FL; read-out: A. baumannii PBP3 Potency. The procedure, abridged: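 Purified PBPs pre-incubated with inhibitor (E. coli PBP3 1.5 μM, 30 min; P. aeruginosa PBP3 0.75 μM, A. baumannii PBP1a 1 μM and PBP3 0.2 μM, 15 min), then Bocillin-FL 0.1 μM (0.05 μM for PBP1a) added; FP read up to 60 min. EC50 = concentration halving bound Bocillin-FL.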
A general note: In fluorescence polarisation assays a small probe gives low polarisation when free and higher when bound to something large.

Assay [10] concerns N. gonorrhoeae WHO X. The assay is described as follows: Liquid broth MIC in Fastidious broth. To be noted: Neisseria gonorrhoeae, read-out: Minimum Inhibitory Concentration (MIC), N. gonorrhoeae WHO X.
Assay [11] deals with A. baumannii CDC-0033. The assay is described as follows: microbe, parasite or virus in culture. To be noted: Acinetobacter baumannii, CDC0033, read-out: MIC, A. baumannii CDC-0033. The assay is classed as cell-based.

Take `O=C(NCCN1CCN(C(=O)N[C@@H](C(=O)N[C@H]2Cc3ccc(F)c(C(=O)O)c3OB2O)c2cc(F)c(O)c(O)c2Cl)C(=O)C1=O)Nc1cccnc1` [Example 222, (R)-3-((R)-2-(2-chloro-5-fluoro-3,4-dihydroxyphenyl)-2-(2,3-dioxo-4-(2-(3-(pyridin-3-yl)ureido)ethyl)piperazine-1-carboxamido)acetamido)-7-fluoro-2-hydroxy-3,4-dihydro-2H-benzo[e][1,2]oxaborinine-8-carboxylic acid]: the MIC in [1] is 2 to 4 µg/mL (≈ 2.68 to 5.36 µM); in [2] it was 4 to 8 µg/mL (≈ 5.36 to 10.7 µM); in assay [3] it was under 1 µg/mL; in [4], 32 to 64 µg/mL (≈ 42.9 to 85.8 µM); in [5] it was 2 to 4 µg/mL (≈ 2.68 to 5.36 µM); in [6], under 1 µg/mL. For the same compound, the MIC in assay [7] was 8 to 16 µg/mL (≈ 10.7 to 21.5 µM); in [8], over 64 µg/mL; in [10] it was over 64 µg/mL; in assay [11], 2 to 4 µg/mL (≈ 2.68 to 5.36 µM). Also, the pIC50 in [9] is over 5.00.

Consider `CN(CCN1CCN(C(=O)NC(C(=O)N[C@H]2Cc3ccc(F)c(C(=O)O)c3OB2O)c2cc(F)c(O)c(O)c2Cl)C(=O)C1=O)S(=O)(=O)c1ccc(C(N)=O)cc1` (stereo partly drawn) [Example 223, (3R)-3-(2-(4-(2-((4-carbamoyl-N-methylphenyl)sulfonamido)ethyl)-2,3-dioxopiperazine-1-carboxamido)-2-(2-chloro-5-fluoro-3,4-dihydroxyphenyl)acetamido)-7-fluoro-2-hydroxy-3,4-dihydro-2H-benzo[e][1,2]oxaborinine-8-carboxylic acid], for which the MIC in assay [1] is 2 to 4 µg/mL (≈ 2.43 to 4.86 µM); in assay [2], 16 to 32 µg/mL (≈ 19.4 to 38.9 µM); in assay [3] it was under 1 µg/mL; in [4], 2 to 4 µg/mL (≈ 2.43 to 4.86 µM); in [5] it was 2 to 4 µg/mL (≈ 2.43 to 4.86 µM); in [6], under 1 µg/mL. The MIC was 2 to 4 µg/mL (≈ 2.43 to 4.86 µM) in [7], over 64 µg/mL in [8], over 64 µg/mL in assay [10] and 8 to 16 µg/mL (≈ 9.72 to 19.4 µM) in [11]. The pIC50 in assay [9] is over 5.00.

Turning to `CN(CCN1CCN(C(=O)NC(C(=O)N[C@H]2Cc3ccc(F)c(C(=O)O)c3OB2O)c2cc(F)c(O)c(O)c2Cl)C(=O)C1=O)S(=O)(=O)c1cccc(C(N)=O)c1` (stereo partly drawn) [Example 224, (3R)-3-(2-(4-(2-((3-carbamoyl-N-methylphenyl)sulfonamido)ethyl)-2,3-dioxopiperazine-1-carboxamido)-2-(2-chloro-5-fluoro-3,4-dihydroxyphenyl)acetamido)-7-fluoro-2-hydroxy-3,4-dihydro-2H-benzo[e][1,2]oxaborinine-8-carboxylic acid], the MIC in [1] was 2 to 4 µg/mL (≈ 2.43 to 4.86 µM); in assay [2], 16 to 32 µg/mL (≈ 19.4 to 38.9 µM); in assay [3], under 1 µg/mL; in [4], 2 to 4 µg/mL (≈ 2.43 to 4.86 µM); in assay [5], under 1 µg/mL; in assay [6], under 1 µg/mL. The MIC in assay [7] is 2 to 4 µg/mL (≈ 2.43 to 4.86 µM); in [8], over 64 µg/mL; in [10], over 64 µg/mL; in assay [11] it was 8 to 16 µg/mL (≈ 9.72 to 19.4 µM). Moreover, in assay [9], the pIC50 was over 5.00.

For `CN(CCN1CCN(C(=O)N[C@@H](C(=O)N[C@H]2Cc3ccc(F)c(C(=O)O)c3OB2O)c2cc(F)c(O)c(O)c2Cl)C(=O)C1=O)Cc1cccc(C(N)=O)c1` [Example 225, (R)-3-((R)-2-(4-(2-((3-carbamoylbenzyl)(methyl)amino)ethyl)-2,3-dioxopiperazine-1-carboxamido)-2-(2-chloro-5-fluoro-3,4-dihydroxyphenyl)acetamido)-7-fluoro-2-hydroxy-3,4-dihydro-2H-benzo[e][1,2]oxaborinine-8-carboxylic acid], the MIC in [1] is under 1 µg/mL; in assay [2], 16 to 32 µg/mL (≈ 20.7 to 41.4 µM); in assay [3], under 1 µg/mL; in assay [4] it was under 1 µg/mL; in assay [5], under 1 µg/mL; in assay [6], under 1 µg/mL. For the same compound, the MIC is 2 to 4 µg/mL (≈ 2.59 to 5.18 µM) in assay [7], over 64 µg/mL in assay [8], over 64 µg/mL in [10] and 2 to 4 µg/mL (≈ 2.59 to 5.18 µM) in assay [11]. Further, in assay [9], the pIC50 is over 5.00.

For `CN(CCN1CCN(C(=O)N[C@@H](C(=O)N[C@H]2Cc3ccc(F)c(C(=O)O)c3OB2O)c2cc(F)c(O)c(O)c2Cl)C(=O)C1=O)Cc1ccc(C(N)=O)cc1` [Example 226, (R)-3-((R)-2-(4-(2-((4-carbamoylbenzyl)(methyl)amino)ethyl)-2,3-dioxopiperazine-1-carboxamido)-2-(2-chloro-5-fluoro-3,4-dihydroxyphenyl)acetamido)-7-fluoro-2-hydroxy-3,4-dihydro-2H-benzo[e][1,2]oxaborinine-8-carboxylic acid], the MIC is under 1 µg/mL in assay [1]; 16 to 32 µg/mL (≈ 20.7 to 41.4 µM) in [2]; under 1 µg/mL in assay [3]; under 1 µg/mL in assay [4]; under 1 µg/mL in [5]; under 1 µg/mL in assay [6]. In addition, the MIC in [7] was 2 to 4 µg/mL (≈ 2.59 to 5.18 µM); in assay [8], over 64 µg/mL; in assay [10] it was over 64 µg/mL; in assay [11] it was 2 to 4 µg/mL (≈ 2.59 to 5.18 µM). Besides, the pIC50 in [9] is over 5.00.

In the case of `O=C(NCCCN1CCN(C(=O)NC(C(=O)N[C@H]2Cc3ccc(F)c(C(=O)O)c3OB2O)c2cc(F)c(O)c(O)c2Cl)C(=O)C1=O)Nc1ccc(O)cc1` (stereo partly drawn) [Example 227, (3R)-3-(2-(2-chloro-5-fluoro-3,4-dihydroxyphenyl)-2-(4-(3-(3-(4-hydroxyphenyl)ureido)propyl)-2,3-dioxopiperazine-1-carboxamido)acetamido)-7-fluoro-2-hydroxy-3,4-dihydro-2H-benzo[e][1,2]oxaborinine-8-carboxylic acid], the MIC in assay [1] was under 1 µg/mL; in assay [2], 4 to 8 µg/mL (≈ 5.16 to 10.3 µM); in assay [3], under 1 µg/mL; in assay [4], under 1 µg/mL; in assay [5], 2 to 4 µg/mL (≈ 2.58 to 5.16 µM); in assay [6], under 1 µg/mL. In addition, the MIC in assay [7] is under 1 µg/mL; in [8] it was over 64 µg/mL; in assay [10] it was over 64 µg/mL; in assay [11] it was 2 to 4 µg/mL (≈ 2.58 to 5.16 µM). Also, the pIC50 in [9] was over 5.00.

Turning to `O=C(NCCCN1CCN(C(=O)NC(C(=O)N[C@H]2Cc3ccc(F)c(C(=O)O)c3OB2O)c2cc(F)c(O)c(O)c2Cl)C(=O)C1=O)Nc1ccncc1` (stereo partly drawn) [Example 228, (3R)-3-(2-(2-chloro-5-fluoro-3,4-dihydroxyphenyl)-2-(2,3-dioxo-4-(3-(3-(pyridin-4-yl)ureido)propyl)piperazine-1-carboxamido)acetamido)-7-fluoro-2-hydroxy-3,4-dihydro-2H-benzo[e][1,2]oxaborinine-8-carboxylic acid], the MIC is under 1 µg/mL in [1]; 16 to 32 µg/mL (≈ 21.1 to 42.1 µM) in [2]; under 1 µg/mL in [3]; under 1 µg/mL in assay [4]; 2 to 4 µg/mL (≈ 2.63 to 5.26 µM) in assay [5]; under 1 µg/mL in [6]. Besides, the MIC was 2 to 4 µg/mL (≈ 2.63 to 5.26 µM) in [7], over 64 µg/mL in assay [8], over 64 µg/mL in [10] and 2 to 4 µg/mL (≈ 2.63 to 5.26 µM) in assay [11]. Further, in assay [9], the pIC50 was over 5.00.

As for `O=C(O)c1c(F)ccc2c1OB(O)[C@@H](NC(=O)[C@H](NC(=O)N1CCN(CCNC(=O)[C@@H]3CCCN3)C(=O)C1=O)c1cc(F)c(O)c(O)c1Cl)C2` [Example 229, (R)-3-((R)-2-(2-chloro-5-fluoro-3,4-dihydroxyphenyl)-2-(2,3-dioxo-4-(2-((S)-pyrrolidine-2-carboxamido)ethyl)piperazine-1-carboxamido)acetamido)-7-fluoro-2-hydroxy-3,4-dihydro-2H-benzo[e][1,2]oxaborinine-8-carboxylic acid], the MIC is 2 to 4 µg/mL (≈ 2.77 to 5.53 µM) in [1]; 4 to 8 µg/mL (≈ 5.53 to 11.1 µM) in assay [2]; under 1 µg/mL in [3]; under 1 µg/mL in assay [4]; 2 to 4 µg/mL (≈ 2.77 to 5.53 µM) in assay [5]; 2 to 4 µg/mL (≈ 2.77 to 5.53 µM) in assay [6]. The MIC in [7] was under 1 µg/mL; in [8], 16 to 32 µg/mL (≈ 22.1 to 44.3 µM); in [10] it was over 64 µg/mL; in assay [11], 8 to 16 µg/mL (≈ 11.1 to 22.1 µM). Moreover, the pIC50 in [9] is over 5.00.

The values above are taken from US20240270762A1, “PENICILLIN-BINDING PROTEIN INHIBITORS” (priority 2021, published 2024).
